These results are taken from patent EP1157000B1 (Warner-Lambert Company LLC, priority 1999, dated 2001).

Structures can show the parent of a compound that is named as a salt. Where two headings read alike, the source gives them in different places. A value given as a limit tells only on which side of the number the result lay.

The assay deals with T1, rBCATc (Rattus norvegicus, UniProt P54690).
T1 construct: The supernatant was dialyzed with at least three changes of dialysis buffer; from tissue; host or cells: rat brain (high-speed supernatant of homogenate, dialyzed)
T1 sequence (P54690 1-411): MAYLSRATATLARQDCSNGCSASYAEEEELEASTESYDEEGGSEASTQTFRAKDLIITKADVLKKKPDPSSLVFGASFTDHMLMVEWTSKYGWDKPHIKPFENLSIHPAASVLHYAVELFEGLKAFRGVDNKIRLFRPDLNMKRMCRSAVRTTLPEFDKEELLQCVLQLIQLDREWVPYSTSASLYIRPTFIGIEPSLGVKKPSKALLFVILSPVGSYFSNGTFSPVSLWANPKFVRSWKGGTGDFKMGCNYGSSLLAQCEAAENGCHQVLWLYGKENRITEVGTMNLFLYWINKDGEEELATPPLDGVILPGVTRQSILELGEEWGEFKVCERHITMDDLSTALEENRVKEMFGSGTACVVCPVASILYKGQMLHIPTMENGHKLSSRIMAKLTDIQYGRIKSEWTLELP
The assay is described as follows: Assay of BCAT ([14C] L-leucine transamination, rat brain supernatant enzyme). The assay is classed as biochemical. Particulars: 10 mM 2-oxoglutarate, pH 8.3, 10 min, 22 °C. The protocol:
Enzyme preparation: Frozen rat brains were thawed on ice and minced into fine pieces. […] The samples were homogenized in Potters homogenizer (B. Bran Biotech International) at 500 rpm for ten strokes, followed by additional ten strokes at 800 rpm. The homogenates were centrifuged in Beckman J2-M1 centrifuge with rotor JA-20 at 19, 000 rpm for 1 hr. […] The resulting enzyme was stored at -80 °C for further assays.
The solutions for the reaction mixture were made in 10-fold concentrations. After 10 min incubation at room temperature (22 °C), the reaction was stopped by adding 100 µl of 15 mM p-nitrophenyl hydrazine in 2 M HCL. After a few minutes, 1 mL of a toluene-based scintillation liquid (4.5 g of PPO and 0.5 g ofbis-MSB in 1 liter of toluene) was added, the tube was capped and mixed thoroughly with a Vortex mixer. […] Six hundreds µl of organic layer from each tube was placed into scintillation vials, followed by adding 10 ml of scintillation cocktail for counting.

Where [1] appears, read: 25 µM [14C] L-leucine, read-out: rBCATc IC50.
Where [2] appears, read: rBCATc IC50, 25 µM [14C] L-leucine.

A word on the IC50: it is the concentration at which inhibition is half-maximal. With `CNCC1(CC(=O)O)CCCCC1` [Example 54, (1-methylaminomethyl-cyclohexyl)-acetic acid; hydrochloride salt], the IC50 under setting [1] is 0.217 mM. In the case of `CCC(C)CNCC1(CC(=O)O)CCCCC1` (stereo not drawn) [Example 26, {1-[(2-Methyl-butylamino)-methyl]-cyclohexyl}-acetic acid; hydrochloride salt], the IC50 under setting [1] amounted to 8.59 mM. On the same count and under the same terms, to `CCC1CCC(CN)(CC(=O)O)CC1` (stereo not drawn) [Example 60, (1-Aminomethyl-4-ethyl-cyclohexyl)-acetic acid; hydrochloric salt] belongs 11.5 mM; to `CCNCC1(CC(=O)O)C[C@H](C)C[C@H](C)C1` (stereo in doubt) [Example 59, ((3R, 5S)-1-Ethylaminomethyl-3,5-dimethyl-cyclohexyl)-acetic acid; hydrochloride salt], 3.37 mM. The same measure, in the same setting: to `O=C(O)CC1(CNCC2CC2)CCCCC1` [Example 29, {1-[(Cyclopropylmethyl-amino)-methyl]-cyclohexyl}-acetic acid hydrochloride salt] belongs 0.391 mM; to `CC(C)NCC1(CC(=O)O)CCCCC1` [Example 33, [1-(Isopropylamino-methyl)-cyclohexyl]-acetic acid hydrochloride salt], 1.02 mM; to `NCC1(CC(=O)O)CCCC1` [Example 24, Sodium salt of 1-aminomethyl-1-cyclopentane-acetic acid], 0.942 mM. Still for that read-out and setting: to `CC(C)NC[C@@]1(CC(=O)O)C[C@H](C)C[C@H](C)C1` [Example 21, 1α,3β,5β-(1-(Isopropylamino-methyl)-3,5-dimethyl-cyclohexyl]-acetic acid hydrochloride salt] belongs 0.169 mM. Consider `C[C@@H]1CC(CN)(CC(=O)O)C[C@H]1C` (racemic) [Example 4, (±)-(trans)-(1-Aminomethyl-3,4-dimethyl-cyclopentyl)-acetic acid hydrochloride], for which the IC50 under setting [1] amounted to 2.51 mM. As for `CC1CC(C)CC(CC(=O)O)(CN(C)C)C1` (stereo not drawn) [Example 12, 1α,3β,5β-(1-Dimethylaminomethyl-3,5-dimethyl-cyclohexyl)-acetic acid; hydrochloride salt], the IC50 under setting [1] came to 1.49 mM.

For `O=C(O)CC1(CNCc2ccccc2)CCCCC1` [Example 35, [1-(Benzylamino-methyl)-cyclohexyl]-acetic acid hydrochloride salt], under setting [1], the IC50 is 1.77 mM.

Take `C[C@@H]1CCC[C@](CN)(CC(=O)O)C1` [Example 1, trans-(1R,3R)(1-Aminomethyl-3-methyl-cyclohexyl)-acetic acid hydrochloride]: the IC50 under setting [1] is 0.146 mM.

For the molecule `CC(=O)NCC1(CC(=O)O)CCCCC1` [Example 40, [1-(Acetylamino-methyl)-cyclohexyl]-acetic acid], the IC50 under setting [1] is 3.8 mM. The same measure, in the same setting: to `CCCCNCC1(CC(=O)O)CCCCC1` [Example 52, (1-Butylaminomethyl-cyclohexyl)-acetic acid; hydrochloride salt] belongs 2.52 mM; to `CCCNCC1(CC(=O)O)CCCCC1` [Example 32, (1-Propylaminomethyl-cyclohexyl)-acetic acid hydrochloride salt], 0.243 mM; to `C[C@@H]1C[C@H](C)CC(CNC2CCC2)(CC(=O)O)C1` (stereo partly drawn) [Example 41, ((3R, 5S)-1-Cyclobutylaminomethyl-3,5-dimethyl-cyclohexyl)-acetic acid; hydrochloride salt], 0.363 mM. Take `CC(C)(C)OC(=O)NCC1(CC(=O)O)CCCCC1` [Example 39, [1-(tert-Butoxycarbonylamino-methyl)-cyclohexyl]-acetic acid]: under setting [1], the IC50 was determined as 0.933 mM. In the case of `CC(=O)NC[C@@]1(CC(=O)O)C[C@H](C)C[C@H](C)C1` [Example 16, 1α,3β,5β-[1-(Acetylamino-methyl)-3,5-dimethyl-cyclohexyl]-acetic acid], the IC50 under setting [1] was 1.32 mM. Same read-out and setting: to `C[C@@H]1C[C@H](C)CC(CNCC2CCCC2)(CC(=O)O)C1` (stereo partly drawn) [Example 45, {(3R, 5S)-1-[(Cyclopentylmethyl-amino)-methyl]-3,5-dimethylcyclohexyl}-acetic acid; hydrochloride salt] belongs 1.33 mM.

With `NCC1(CC(=O)O)CCCC1` [Example 23, 1-Aminomethyl-1-cyclopentane-acetic acid], under setting [1], the IC50 was 2.12 mM. On the same count and under the same terms, then `CC(CO)NCC1(CC(=O)O)CCCCC1` (stereo not drawn) [Example 30, {1-[(2-Hydroxy-1-methyl-ethylamino)-methyl]-cyclohexyl}-acetic acid hydrochloride salt], with 2.25 mM. On the same count and under the same terms, then `CCCNC[C@@]1(CC(=O)O)C[C@H](C)C[C@H](C)C1` [Example 9, 1α,3β,5β-(3,5-Dimethyl-1-propylaminomethyl-cyclohexyl)-acetic acid; hydrochloride salt], with 0.12 mM; and `C[C@@H]1C[C@H](C)C[C@](CO)(CC(=O)O)C1` [Example 49, trans-((3R, 5S)-1-Hydroxymethyl-3,5-dimethyl-cyclohexyl-acetic acid; hydrochloride salt], with 0.084 mM. Same read-out and setting: to `C[C@@H]1C[C@H](C)C[C@@](CO)(CC(=O)O)C1` [Example 50, cis-((3R, 5S)-1-Hydroxymethyl-3,5-dimethyl-cyclohexyl-acetic acid; hydrochloride salt] belongs 0.842 mM; to `CN(Cc1ccccc1)CC1(CC(=O)O)CCCCC1` [Example 55, {1-[(Benzyl-methyl-amino)-methyl]-cycloheayl}-acetic acid; hydrochloride salt], 9.24 mM. As to `C[C@@H]1CCC(CN)(CC(=O)O)C1` (mixture of isomers) [Example 5, (cis/trans)-(3R)-(1-Aminomethyl-3-methyl-cyclopentyl)-acetic acid hydrochloride], the IC50 under setting [1] stood at 2.93 mM. As for `O=C(O)CC1(CNC2CCCCC2)CCCCC1` [Example 34, (1-Cyclohexylaminomethyl-cyclohexyl)-acetic acid hydrochloride salt], the IC50 under setting [1] turned out to be 3.22 mM. For `CNC[C@@]1(CC(=O)O)C[C@H](C)C[C@H](C)C1` [Example 15, 1α,3β,5β-(3,5-Dimethyl-1-methylaminomethyl-cyclohexyl)-acetic acid; hydrochloride salt], the IC50 under setting [1] turned out to be 0.082 mM. On to `CC1CCCCC1(CN)CC(=O)O` (single isomer, unassigned) [Example 2, (1-Aminomethyl-2-methyl-cyclohexyl)-acetic acid hydrochloride], for which inhibition under setting [2] was half-maximal at 1.14 mM (IC50). For the molecule `NCC1(CC(=O)O)CCCCC1` [Example 22, 1-Aminomethyl-1-cyclohexane-acetic acid], the IC50 under setting [1] was found to be 0.389 mM. The same measure, in the same setting: then `C[C@@H]1C[C@H](C)C[C@@](CC(=O)O)(CN(C)Cc2ccccc2)C1` [Example 14, 1α,3β,5β-{1-[(Benzyl-methyl-amino)-methyl]-3,5-dimethylcyclohexyl}-acetic acid; hydrochloride salt], with 8.59 mM; and `COC(CNCC1(CC(=O)O)C[C@H](C)C[C@H](C)C1)OC` (stereo partly drawn) [Example 44, {(3R, 5S)-1-[(2,2-Dimethoxy-ethylamino)-methyl]-3,5-dimethylcyclohexyl}-acetic acid; hydrochloride salt], with 2.73 mM; and `CCCCNC[C@@]1(CC(=O)O)C[C@H](C)C[C@H](C)C1` [Example 13, 1α,3β,5β-(1-Butylaminomethyl-3,5-dimethyl-cyclohexyl)-acetic acid; hydrochloride salt], with greater than 10 mM. On to `CC(CO)NCC1(CC(=O)O)C[C@H](C)C[C@H](C)C1` (stereo partly drawn) [Example 43, {(3R, 5S)-1-[(2-Hydroxy-1-methyl-ethylamino)-methyl]-3,5-dimethyl-cyclohexyl}-acetic acid; hydrochloride salt], for which the IC50 under setting [1] is 2.08 mM. On the same count and under the same terms, then `CCC(C)CNCC1(CC(=O)O)C[C@H](C)C[C@H](C)C1` (stereo partly drawn) [Example 42, {(3R, 5S)-3,5-Dimethyl-1-[(2-methyl-butylamino)-methyl]-cyclohexyl}-acetic acid; hydrochloride salt], with 0.669 mM; and `O=C(O)CC1(CO)CCCCC1` [Example 25, Sodium salt of 1-(hydroxymethyl)cyclohexane-acetic acid], with 0.17 mM. As to `CC1(C)CCCC(CN)(CC(=O)O)C1` (stereo not drawn) [Example 3, (1-Aminomethyl-3,3-dimethyl-cyclohexyl)-acetic acid hydrochloride], half-maximal inhibition under setting [2] (IC50) required 1.66 mM. For the molecule `O=C(O)CC1(CNC2CCC2)CCCCC1` [Example 20, hydrochloride salt], the IC50 under setting [1] is 0.469 mM. Still for that read-out and setting: then `CC(C)CNC[C@@]1(CC(=O)O)C[C@H](C)C[C@H](C)C1` [Example 17, 1α,3β,5β-(1-(Isobutylamino-methyl)-3,5-dimethyl-cyclohexyl]-acetic acid hydrochloride salt], with greater than 10 mM.
